Source: article PMC4491662, “Synthesis, Biological Evaluation and Molecular Modeling of Substituted Indeno[1,2-b]indoles as Inhibitors of Human Protein Kinase CK2” (Pharmaceuticals, 2015)
Like-named read-outs stand apart in the source and are kept apart here.

Key:
HEK293T = assay: Cytotoxicity WST-1 assay on HEK293T; type: cell-based, human; settings: 96 h; for EC50: Homo sapiens, HEK-293T, read-out: EC50 in µM ± SD
Excerpt: (§1) Four cell lines of various origins were used to evaluate the cytotoxicity of our target compounds 5–7. The selected cell lines were (i) NIH-3T3, a cell line originally established from the primary mouse embryonic fibroblast cells, (ii) MEF, primary mouse embryonic fibroblasts (used at their early passages) prepared as previously described, (iii) WI-38, a human diploid cell line derived from normal embryonic lung tissue, and (iv) HEK293T, a transformed variant of the human embryonic kidney cell line HEK293. After 96 h, cytotoxicity was evaluated using the WST-1 assay. […] Seventeen compounds were evaluated on the cell lines and then compared to TBB used as a standard. […]. All cells were grown in DMEM medium supplemented with 10% fetal calf serum, glutamine (2 mM), penicillin (100 U/mL), and streptomycin (50 μg/mL) at 37 °C under a humidified 5% CO2 atmosphere (Gibco). The assays were performed in sterile 96-wells microtiter plates (Falcon). Cells were plated at 500 (NIH-3T3), 750 (WI-38) or 1000 (MEF; HEK293T) cells/100 µL/well. Drug solutions (10 μL per well) of appropriate concentration (prepared by dilution in the culture medium from 2 mM stock acetonitrile solution) were added 24 h after cell seeding. For ellagic acid and emodin, DMSO was used to prepare the stock solution. After 96 h, the cytotoxicity is evaluated using the Cell Proliferation Reagent WST-1 following the procedure described by the manufacturer (Roche Applied Science). The drugs were assayed at 10, 5, 1, 0.2 and 0.04 µM in triplicate. The vehicle was used as control. The experiments were repeated three times.

human CK2 holoenzyme [1] = target: T1, human CK2 holoenzyme (Homo sapiens, UniProt P68400); settings: read-out: IC50 ± SD, assay buffer with 100 µM ATP
MEF = assay: Cytotoxicity WST-1 assay on MEF; type: cell-based, mouse; settings: 96 h; for EC50: Mus musculus, read-out: EC50 in µM ± SD
Excerpt: as §1

NIH-3T3 = assay: Cytotoxicity WST-1 assay on NIH-3T3; type: cell-based, mouse; settings: for EC50: Mus musculus, NIH3T3, 96 h, read-out: EC50 in µM ± SD
Excerpt: as §1

WI-38 = assay: Cytotoxicity WST-1 assay on WI-38; type: cell-based, human; settings: WI-38, 96 h; for EC50: Homo sapiens, read-out: EC50 in µM ± SD
Excerpt: as §1

human CK2 holoenzyme [2] = target: T1, human CK2 holoenzyme; assay: biochemical; settings: for inhibition at 10 µM: average percent inhibition at 10 µM
[3] = Cytotoxicity WST-1 assay, statements over the four cell lines; type: cell-based; settings: mouse (NIH-3T3, MEF) and human (WI-38, HEK293T), WST-1, cell line not specified, read-out: EC50 (cytotoxic activity, over the cell lines)
Excerpt: as §1

human CK2 holoenzyme [4] = target: T1, human CK2 holoenzyme; assay: Mode of inhibition and Ki determination, CE based CK2 activity assay at varied ATP; type: biochemical; parameters: made in house; host or cells: Escherichia coli BL21(DE3), pT7-7 expression system; settings: for IC50: IC50 at varied ATP
Experimental: For this purpose, reaction rates at different inhibitor concentrations were plotted in a Lineweaver-Burk diagram against the varying ATP concentration, resulting in −1/Kmapp as given by the intercepts with the abscissa in both graphs. For determining the Ki values, Kmapp were plotted against the different inhibitor concentrations as shown for 7a in Figure 6.
For this purpose, enzymatic reactions and IC50 determinations were performed as described in Section 3.3.2., but varying compositions of the assay buffer with respect to the ATP concentration were used. […] For this purpose, reaction velocities at different inhibitor concentrations were plotted in a Lineweaver-Burk diagram against the varied ATP concentrations and the corresponding −1/Kmapp were obtained by the intercepts with the abscissa. Finally the Kmapp values as obtained were plotted against the different inhibitor concentrations. By this method, the Ki values with a negative sign were given by the intercepts of the linear slope with the abscissa.

T1 sequence (P68400 whole entry): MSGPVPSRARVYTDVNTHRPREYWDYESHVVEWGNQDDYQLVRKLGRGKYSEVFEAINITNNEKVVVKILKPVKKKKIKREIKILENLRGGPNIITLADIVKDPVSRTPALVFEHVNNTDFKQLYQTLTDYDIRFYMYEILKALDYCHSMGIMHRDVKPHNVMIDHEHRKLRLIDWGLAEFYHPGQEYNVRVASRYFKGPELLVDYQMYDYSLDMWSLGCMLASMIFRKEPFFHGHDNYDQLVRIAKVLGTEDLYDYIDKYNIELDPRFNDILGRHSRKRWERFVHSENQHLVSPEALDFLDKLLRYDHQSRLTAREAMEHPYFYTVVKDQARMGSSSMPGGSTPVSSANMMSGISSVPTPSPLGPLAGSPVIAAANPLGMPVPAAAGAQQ
T1 sequence (P67870 whole entry partner): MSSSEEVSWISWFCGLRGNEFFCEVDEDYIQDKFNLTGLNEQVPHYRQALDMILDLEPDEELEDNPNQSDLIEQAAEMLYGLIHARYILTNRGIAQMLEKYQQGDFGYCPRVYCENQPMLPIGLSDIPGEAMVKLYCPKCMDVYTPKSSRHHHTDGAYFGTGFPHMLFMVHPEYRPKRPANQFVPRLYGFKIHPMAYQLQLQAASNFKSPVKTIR

O=c1oc2c(O)c(O)cc3c(=O)oc4c(O)c(O)cc1c4c23 [ellagic acid, reference compound]
EC50 (HEK293T): > 10 µM | IC50 (human CK2 holoenzyme [1]): 0.04 ± 0.007 µM | EC50 (MEF): > 10 µM | EC50 (NIH-3T3): > 10 µM | EC50 (WI-38): > 10 µM | inhibition at 10 µM (human CK2 holoenzyme [2]): 95%

Cc1cc(O)c2c3c(n(C(C)C)c2c1)-c1ccccc1C3=O [Compound 6a, 9-Hydroxy-5-isopropyl-7-methyl-5H-indeno[1,2-b]indol-10-one]
EC50 (HEK293T): > 10 µM | EC50 (MEF): > 10 µM | EC50 (NIH-3T3): > 10 µM | EC50 (WI-38): > 10 µM

CC(C)n1c2c(=O)c(-c3ccco3)cc(=O)c2c2c(=O)c3ccccc3c21 [Compound 7e, 7-Furan-2-yl-5-isopropyl-5H-indeno[1,2-b]indole-6,9,10-trione]
melting point: 216.1 °C | IC50 (human CK2 holoenzyme [2]): 1.65 ± 0.14 µM | inhibition at 10 µM (human CK2 holoenzyme [2]): 82%

CC(C)c1ccc2c(c1O)c1c(n2C(C)C)-c2ccccc2C1=O [Compound 6g, 9-Hydroxy-5,8-diisopropyl-5H-indeno[1,2-b]indol-10-one]
melting point: 235 °C

CC(C)c1cc(=O)c2c(c1=O)c1c(=O)c3ccccc3c1n2C(C)C [Compound 7g, 5,8-Diisopropyl-5H-indeno[1,2-b]indole-6,9,10-trione]
EC50 (HEK293T): 0.4 ± 0.02 µM | EC50 at 96 h [3]: 0.4 to 8.8 µM | EC50 (MEF): > 10 µM | EC50 (NIH-3T3): 1.5 ± 0.8 µM | melting point: 226 °C | EC50 (WI-38): 2.5 ± 0.4 µM | inhibition at 10 µM (human CK2 holoenzyme [2]): 45%

CC(C)c1cc(=O)c2c3c(=O)c4ccccc4c3n(C(C)C)c2c1=O [Compound 7b, 5,7-Diisopropyl-5H-indeno[1,2-b]indole-6,9,10-trione]
EC50 (HEK293T): > 10 µM | IC50 (human CK2 holoenzyme [1]): 4.76 ± 0.29 µM | EC50 (MEF): > 10 µM | EC50 (NIH-3T3): > 10 µM | melting point: 230.4 °C | EC50 (WI-38): > 10 µM | inhibition at 10 µM (human CK2 holoenzyme [2]): 60%

CC(C)n1c2c(=O)c(-c3ccc(F)cc3)cc(=O)c2c2c(=O)c3ccccc3c21 [Compound 7d, 7-(4-Fluorophenyl)-5-isopropyl-5H-indeno[1,2-b]indole-6,9,10-trione]
EC50 (HEK293T): 4.9 ± 2.4 µM | EC50 at 96 h [3]: 0.4 to 8.8 µM | EC50 (MEF): 8.5 ± 0.4 µM | EC50 (NIH-3T3): > 10 µM | melting point: 258.1 °C | EC50 (WI-38): > 10 µM | inhibition at 10 µM (human CK2 holoenzyme [2]): 42%

Cc1cc(=O)c2c3c(=O)c4ccccc4c3n(C(C)C)c2c1=O [Compound 7a, 5-Isopropyl-7-methyl-5H-indeno[1,2-b]indole-6,9,10-trione]
EC50 in µM ± SD (HEK293T; HEK293T, WST-1): not soluble | Ki (human CK2 holoenzyme [4]): 0.144 ± 0.022 µM | IC50 (human CK2 holoenzyme [4]; fifth of six ATP concentrations ranging from 6 to 600 µM): 3.32 µM | IC50 (human CK2 holoenzyme [4]; fourth of six ATP concentrations ranging from 6 to 600 µM): 1.27 µM | IC50 (human CK2 holoenzyme [4]; highest of six ATP concentrations, 600 µM): 5.16 µM | IC50 (human CK2 holoenzyme [4]; lowest of six ATP concentrations, 6 µM): 0.13 µM | IC50 (human CK2 holoenzyme [4]; second of six ATP concentrations ranging from 6 to 600 µM): 0.34 µM | IC50 (human CK2 holoenzyme [4]; third of six ATP concentrations ranging from 6 to 600 µM): 0.43 µM | mode of CK2 inhibition (human CK2 holoenzyme [4]; IC50 increases linearly with ATP concentration): ATP competitive | IC50 at 600 µM ATP compared to IC50 at 6 µM ATP (human CK2 holoenzyme [4]; fold higher): 40 fold | EC50 in µM ± SD (MEF; WST-1): not soluble | EC50 in µM ± SD (NIH-3T3; NIH-3T3, 96 h, WST-1): not soluble | melting point: 235 °C | EC50 in µM ± SD (WI-38; WST-1): not soluble | IC50 (human CK2 holoenzyme [2]): 0.43 ± 0.12 µM | inhibition at 10 µM (human CK2 holoenzyme [2]): 87%

Cc1cc(O)c2c(c1)C(=O)c1cc(O)cc(O)c1C2=O [emodin, reference compound]
EC50 (HEK293T): > 10 µM | EC50 (MEF): > 10 µM | EC50 (NIH-3T3): > 10 µM | EC50 (WI-38): > 10 µM

CC(C)n1c2c(c3c1-c1ccccc1C3=O)C(=O)CC(c1ccco1)C2 (stereo not drawn) [Compound 5e, 7-Furan-2-yl-5-isopropyl-5,6,7,8-tetrahydroindeno[1,2-b]indole-9,10-dione]
melting point: 233.1 °C | inhibition at 10 µM (human CK2 holoenzyme [2]): 35%

CC(C)C1CCc2c(c3c(n2C(C)C)-c2ccccc2C3=O)C1=O (stereo not drawn) [Compound 5g, 5,8-Diisopropyl-5,6,7,8-tetrahydroindeno[1,2-b]indole-9,10-dione]
EC50 (HEK293T): > 10 µM | EC50 (MEF): > 10 µM | EC50 (NIH-3T3): > 10 µM | melting point: 215 °C | EC50 (WI-38): > 10 µM | inhibition at 10 µM (human CK2 holoenzyme [2]): 21%

CC(C)n1c2c(c3c1-c1ccccc1C3=O)C(=O)CC(c1ccc(F)cc1)C2 (stereo not drawn) [Compound 5d, 7-(4-Fluorophenyl)-5-isopropyl-5,6,7,8-tetrahydroindeno[1,2-b]indole-9,10-dione]
melting point: 264 °C | inhibition at 10 µM (human CK2 holoenzyme [2]): 12%

CC(C)n1c2c(=O)c(-c3ccccc3)cc(=O)c2c2c(=O)c3ccccc3c21 [Compound 7c, 5-Isopropyl-7-phenyl-5H-indeno[1,2-b]indole-6,9,10-trione]
EC50 (HEK293T): 1.6 ± 0.2 µM | EC50 at 96 h [3]: 0.4 to 8.8 µM | EC50 (MEF): > 10 µM | EC50 (NIH-3T3): > 10 µM | melting point: 230.4 °C | EC50 (WI-38): > 10 µM | inhibition at 10 µM (human CK2 holoenzyme [2]): 41%

CC(C)n1c2c(c3c1-c1ccccc1C3=O)C(=O)CC(c1ccccc1)C2 (stereo not drawn) [Compound 5c, 5-Isopropyl-7-phenyl-5,6,7,8-tetrahydroindeno[1,2-b]indole-9,10-dione]
EC50 (HEK293T): > 10 µM | EC50 (MEF): > 10 µM | EC50 (NIH-3T3): > 10 µM | melting point: 278 °C | EC50 (WI-38): > 10 µM | inhibition at 10 µM (human CK2 holoenzyme [2]): 7%

CC(C)c1cc(O)c2c3c(n(C(C)C)c2c1)-c1ccccc1C3=O [Compound 6b, 9-Hydroxy-5,7-diisopropyl-5H-indeno[1,2-b]indol-10-one]
EC50 (HEK293T): > 10 µM | EC50 (MEF): > 10 µM | EC50 (NIH-3T3): > 10 µM | melting point: 188.1 °C | EC50 (WI-38): > 10 µM

CC(C)n1c2c(c3c(O)cc(-c4ccccc4)cc31)C(=O)c1ccccc1-2 [Compound 6c, 9-Hydroxy-5-isopropyl-7-phenyl-5H-indeno[1,2-b]indol-10-one]
EC50 (HEK293T): > 10 µM | EC50 (MEF): > 10 µM | EC50 (NIH-3T3): > 10 µM | melting point: 198 °C | EC50 (WI-38): > 10 µM

CC(C)n1c2c(c3c(O)cc(-c4ccc(F)cc4)cc31)C(=O)c1ccccc1-2 [Compound 6d, 7-(4-Fluorophenyl)-9-hydroxy-5-isopropyl-5H-indeno[1,2-b]indol-10-one]
EC50 (HEK293T): > 10 µM | EC50 (MEF): > 10 µM | EC50 (NIH-3T3): > 10 µM | melting point: 208.1 °C | EC50 (WI-38): > 10 µM

CC1CC(=O)c2c3c(n(C(C)C)c2C1)-c1ccccc1C3=O (stereo not drawn) [Compound 5a, 5-Isopropyl-7-methyl-5,6,7,8-tetrahydroindeno[1,2-b]indole-9,10-dione]
EC50 (HEK293T): > 10 µM | EC50 at 96 h [3]: > 10 µM | EC50 (MEF): > 10 µM | EC50 (NIH-3T3): > 10 µM | EC50 (WI-38): > 10 µM

CC(C)C1CC(=O)c2c3c(n(C(C)C)c2C1)-c1ccccc1C3=O (stereo not drawn) [Compound 5b, 5,7-Diisopropyl-5,6,7,8-tetrahydroindeno[1,2-b]indole-9,10-dione]
EC50 (HEK293T): > 10 µM | EC50 at 96 h [3]: > 10 µM | EC50 (MEF): 4.4 ± 0.3 µM | EC50 (NIH-3T3): > 10 µM | EC50 (WI-38): > 10 µM | IC50 (human CK2 holoenzyme [2]): 0.61 ± 0.03 µM

CC1CCc2c(c3c(n2C(C)C)-c2ccccc2C3=O)C1=O (stereo not drawn) [Compound 5f, 5-Isopropyl-8-methyl-5,6,7,8-tetrahydroindeno[1,2-b]indole-9,10-dione]
EC50 (HEK293T): > 10 µM | EC50 (MEF): > 10 µM | EC50 (NIH-3T3): > 10 µM | EC50 (WI-38): > 10 µM

CC(C)n1c2c(c3c(O)cc(-c4ccco4)cc31)C(=O)c1ccccc1-2 [Compound 6e, 7-Furan-2-yl-9-hydroxy-5-isopropyl-5H-indeno[1,2-b]indol-10-one]
EC50 (HEK293T): > 10 µM | EC50 (MEF): > 10 µM | EC50 (NIH-3T3): > 10 µM | melting point: 191 °C | EC50 (WI-38): > 10 µM

Brc1c(Br)c(Br)c2[nH]nnc2c1Br [TBB, reference compound]
EC50 (HEK293T): > 10 µM | EC50 (MEF): > 10 µM | EC50 (NIH-3T3): > 10 µM | EC50 (WI-38): > 10 µM
